Source: paper PMC9785397, “Exploiting Conserved Quorum Sensing Signals in Streptococcus mutans and Streptococcus pneumoniae” (Microorganisms, 2022)
Converted amounts (≈) assume the structure as drawn.

What was measured:
S. oralis = assay: microbe, parasite or virus in culture; format: cell-based, Streptococcus oralis; conditions: peptides 0–50 μM, 16 h, 37 °C, microaerophilic, A620 nm, three separate experiments
Description: (§1) Streptococcus mutans Clarke (strain designation NCTC 10449), Pseudomonas aeruginosa (Schroeter) Migula (strain designation PAO1), Fusobacterium nucleatum, subspecies nucleatum (strain VPI 4355), and Porphyromonas gingivalis (strain 2561) were purchased from ATCC (LGC Standards Srl, Milan, Italy). Streptococcus mitis, Streptococcus oralis, and Streptococcus sanguinis were obtained from clinical isolates and characterized by morphological, biochemical, and molecular typing. S. mutans, S. mitis, S. oralis, and S. sanguinis were maintained in Brain Heart Infusion (BHI) broth or agar under microaerophilic conditions. P. aeruginosa was maintained in trypticase soy (TS) agar or broth. F. nucleatum was maintained in TS agar or broth with defibrinated sheep blood under anaerobic conditions. P. gingivalis was maintained in ATCC Medium 2722 supplemented with TS broth or agar under anaerobic conditions. Before the experiments, bacterial cultures were inoculated in fresh media (dilution 1:100) and grown for 16 h at 37 °C.
(§2) The antimicrobial activities of the tested peptides were assessed through the determination of the minimum inhibitory concentration (MIC) standardized by the Clinical and Laboratory Standards Institute. Bacterial inocula were diluted in 10 mL of MHB […]. The concentration of the bacteria was adjusted to 0.5 McFarland standard, and the bacteria were dispensed in 96-well microtiter plates (final bacterial concentration: 1 × 10^4 CFU/well). Peptides were dissolved in sterile water (stock concentration: 2 mM) and added at final concentrations ranging from 0 to 50 µM. Plates were incubated at 37 °C for 16 h. At the end of incubation, bacterial growth was recorded using a microplate reader (Varioskan Lux Reader; Thermo Fisher Scientific, Milan, Italy) by quantifying the adsorption at 620 nm. Cultures were then opportunely diluted and seeded on agar plates. Bacterial cultures inoculated with the highest final concentration of the vehicle (sterile water) or chlorhexidine hydrochloride salt (CHX, concentration range: 0.05 to 500 μg/mL; Merck, Milan, Italy) were included as controls in each test. Experiments were performed in triplicate.

F. nucleatum = assay: microbe, parasite or virus in culture; format: cell-based, Fusobacterium nucleatum; conditions: peptides 0–50 μM, 16 h, 37 °C, anaerobic, A620 nm, three separate experiments
Description: as §1, §2

[1] = tested on: S. mutans biofilm formation; assay: Biofilm formation (crystal violet); format: cell-based, Streptococcus mutans; conditions: peptide 20 μM, 72 h, p < 0.05
Procedure: Overnight cultures of S. mutans were diluted 1:1000 in a 1:10 solution of BHI broth supplemented with 0.2% w/v sucrose and artificial saliva (AS; 1.3 g/L KCl, 0.1 g/L NaCl, 0.05 g/L MgCl, 0.1 g/L CaCl2, 0.5 g/L peptone, 25 μg/L NaF, 27 mg/L KH2PO4, 35 mg/L K2HPO4, pH 6.8; all reagents purchased from Merck). Cultures were seeded into 96-well polystyrene microtiter plates (200 µL/well) and incubated at 37 °C under static conditions. To identify the time of incubation that is useful in obtaining a mature biofilm, plates were incubated for 16, 24, 48, 72, or 96 h. Half of the media was renewed every 24 h. At the end of incubations, the wells were emptied and washed three times with sterile PBS to remove planktonic cells. Adhering cells were incubated with resazurin 0.01% in the dark at 37 °C for 20 min [30]. In metabolically active cells, the non-fluorescent resazurin was reduced to highly fluorescent resorufin by dehydrogenase enzymes. The relative fluorescence units (RFU) of resorufin were measured using a fluorimeter (Ex = 530–570 nm, Em = 590–620 nm; Varioskan Lux Reader; Thermo Fisher Scientific).
To assess the effect of the compounds on biofilm formation or mature biofilm, cultures of S. mutans were prepared as described above. […] The optical density was measured at 570 nm using a microplate reader (Varioskan Lux Reader; Thermo Fisher Scientific). […]

vicK gene = assay: qRT-PCR, vicK gene expression in biofilm; format: cell-based, Streptococcus mutans; conditions: CSP1 20 μM vs vehicle, 16 h, qPCR
Procedure: (§3) S. mutans was cultured in BHI supplemented with peptides or the vehicle. Cultures were centrifuged, and total RNA was isolated and purified from the bacterial pellets using the GRS Total RNA Kit—Bacteria (GK16.0100; GRISP Research Solution, Porto, Portugal), following the manufacturer’s instructions. Purified RNA was subjected to DNase I treatment to remove contaminating DNA. The RNA yield and purity were assessed by measuring the absorbance, and only samples with a ratio of 260/280 nm in the 1.8–2 range were used. cDNA was generated using the cDNA RT kit with an RNAse inhibitor (Applied Biosystems; Monza, Milan). Quantitative PCR (qRT-PCR) was performed using SYBR green mixture (iScript One Step RT-PCR kit; Bio-Rad, Segrate, Milan) to determine the transcript levels of genes using the oligonucleotides listed in Table 3. The gyrA gene served as the housekeeping gene.

comD gene = assay: qRT-PCR, comD gene expression; format: cell-based, Streptococcus mutans; conditions: CSP1 20 μM, planktonic, 8 h, qPCR
Procedure: as §3

## CC[C@H](C)[C@H](NC(=O)[C@H](Cc1ccccc1)NC(=O)[C@H](CC(=O)O)NC(=O)[C@H](CCCNC(=N)N)NC(=O)[C@H](Cc1ccccc1)NC(=O)[C@H](Cc1ccccc1)NC(=O)[C@H](CCCCN)NC(=O)[C@H](CO)NC(=O)[C@H](CC(C)C)NC(=O)[C@H](CCCNC(=N)N)NC(=O)[C@H](CCSC)NC(=O)[C@@H](N)CCC(=O)O)C(=O)N[C@@H](CC(C)C)C(=O)N[C@@H](CCC(N)=O)C(=O)N[C@@H](CCCNC(=N)N)C(=O)N[C@@H](CCCCN)C(=O)N[C@@H](CCCCN)C(=O)O [CSP1]
S. oralis
  Minimum inhibitory concentration (MIC), S. oralis: 25 µM (≈ 56.1 µg/mL)
F. nucleatum
  Minimum inhibitory concentration (MIC), F. nucleatum: >50 µM
[1]
  Effect on biofilm production vs. vehicle: significantly increased
vicK gene
  Expression of vicK in S. mutans biofilm: significantly increased
comD gene
  Expression of comD in S. mutans: increased the expression
